Tests used:
[1] = system: Tie2Cre⋅Pkd2^flox/flox mice; experiment: Working heart perfusion system, hearts of treated Pkd2 mice (Example 2); type: in vivo, mouse
Experimental: All mouse experiments were performed by two operators who were blinded to the experimental conditions. […] One-week-old Tie2Cre⋅Pkd2^WT/WT (with Cre activation; control group), Tie2Cre⋅Pkd2^flox/flox (without Cre activation; control group) or Tie2Cre⋅Pkd2^flox/flox (with Cre activation; experimental group) mice were intraperitoneally injected with 250 μg of tamoxifen in a 50-μL volume daily for five consecutive days.
The ex vivo measurements of heart parameters were recorded using a mouse working heart system from Emka Technologies to study heart function independently of neuronal innervation or humoural effects. This system collected data regarding the cardiac contractile strength, electrical heart propagation or ECG and other cardiac functions, including the HR, LVP, LVV, left atrial pressure (LAP), aortic out flow (AOF), stroke volume (SV), cardiac output (CO), end diastolic/systolic volume (Edv-Esv), rate of left atrial pressure raise (+dp/dt) and fall (−dt/dt), and the preload, afterload, and main aortic pressure. Heparin (100 units, IP), xylazine (10-15 mg/kg, IP), and ketamine (200-350 mg/kg, IP) were used to prevent blood coagulation in the coronary arteries and to anaesthetize the mice. After cannulation, the heart was perfused with Krebs-Ringer superfusion solution (in mM: 125 NaCl, 2.5 KCl, 1.25 NaH2PO4, 2 CaCl2, 1 MgCl2, 25 NaHCO3 and 25 glucose). Throughout the experiment, the solution was continuously bubbled with carbogen (95% O2 and 5% CO2) to reach pH 7.4 at 38.0° C. Stress tests were performed on the heart by perfusing epinephrine (4 μg/L) or diltiazem (0.08 μg/L). Cardiac function was plotted in a loop diagram showing the LVV-LVP relationship (volume-pressure loop).

[2] = system: Tie2Cre⋅IFT88^flox/flox mice; experiment: Working heart perfusion system, hearts of treated IFT88 mice; type: in vivo, mouse
[3] = system: Tie2Cre⋅Pkd2^flox/flox mice; experiment: Endothelial-specific Pkd2 mouse model, 8-week treatment (Example 2); type: in vivo
Experimental: Mouse models. All mouse experiments were performed by two operators who were blinded to the experimental conditions. All animal procedures were performed according to the University of California Irvine and Chapman University Animal Care and Use Committee Guidelines. One-week-old Tie2Cre⋅Pkd2^WT/WT (with Cre activation; control group), Tie2Cre⋅Pkd2^flox/flox (without Cre activation; control group) or Tie2Cre⋅Pkd2^flox/flox (with Cre activation; experimental group) mice were intraperitoneally injected with 250 μg of tamoxifen in a 50-μL volume daily for five consecutive days. A limited number of IFT88 mice was also used as a cilia-less model in this study. […] On the other hand, fenoldopam-alone (1 μg/kg/min) was perfused for 30 minutes every 72 hours for 8 weeks. […] Five minutes after the CT-Fe2O3-NP injection, a 1.35-T AlNiCo cylindrical magnet (VWR International) was placed at the posterior and anterior regions of the mouse for 10 minutes daily.
Mouse blood pressure measurements. […] Blood pressure was measured twice daily for the duration of the study after the initial three days of acclimating each mouse to the cuff. All measurements were performed by operators in a double-blind. At the end of the 12-week treatment, the haematology results including the BUN and plasma nitrate/nitrite measurements were examined. BUN assays were conducted using an Arbor Assays calorimetric Detection Kit. Plasma nitrate/nitrite concentrations were quantified using a Cayman nitrate/nitrite assay kit. All steps were performed according to the manufacturers' instructions.
H&E and Masson's trichrome staining. Sections of the zebrafish (whole body) and major mouse organs, including the hearts, kidneys, livers, spleens and lungs, were collected and subjected to H&E staining for zebrafish cysts and histopathology by fixation in 10% formalin. Then, the tissues were dehydrated in buffered formalin, ethanol, and xylene. Finally, the tissues were embedded in liquid paraffin, sectioned (4 μm), and stained with H&E for histological examinations. The pathology slices were observed and imaged using a KEYENCE-BZ-X710 microscope. Mouse heart sections were stained with Masson's trichrome to detect fibrosis using a Masson's Trichrome Stain Kit (Polysciences).

Oc1ccc(C2CNCCc3c2cc(O)c(O)c3Cl)cc1 (stereo not shown) [Fenoldopam, fenoldopam]
CO, cardiac output ([1]; diltiazem stress): 1783 ± 32 µL/min
EDPVR, end-diastolic pressure volume relation ([1]; diltiazem stress): 0.14 ± 0.01 mmHg/μL
EF, ejection fraction ([1]; diltiazem stress): 49.5 ± 0.3%
ESPVR, end-systolic pressure volume relation ([1]; diltiazem stress): 2.21 ± 0.03 mmHg/μL
HR, heart rate ([1]; diltiazem stress): 94 ± 11 beat/min
LV EDP, end-diastolic pressure ([1]; diltiazem stress): 5.7 ± 0.2 mmHg
LV EDV, end-diastolic volume ([1]; diltiazem stress): 40.0 ± 0.4 µL
LV ESP, end-systolic pressure ([1]; diltiazem stress): 35.5 ± 0.5 mmHg
LV ESV, end-systolic volume ([1]; diltiazem stress): 20.2 ± 0.1 µL
LV Pmax, systolic pressure ([1]; diltiazem stress): 44.7 ± 0.7 mmHg
SV, stroke volume ([1]; diltiazem stress): 19.8 ± 0.3 µL
SW, stroke work ([1]; diltiazem stress): 772 ± 10 mmHg · μL
dP/dtmax, maximum rate of LV pressure rise ([1]; diltiazem stress): 4020 ± 642 mmHg/s
dP/dtmin, maximum rate of LV pressure fall ([1]; diltiazem stress): −1537 ± 97 mmHg/s
EDPVR, end-diastolic pressure volume relation ([1]; epinephrine stress): 0.16 ± 0.01 mmHg/μL
EF, ejection fraction ([1]; epinephrine stress): 77.7 ± 2.0%
ESPVR, end-systolic pressure volume relation ([1]; epinephrine stress): 9.8 ± 0.88 mmHg/μL
HR, heart rate ([1]; epinephrine stress): 216 ± 47 beat/min
LV EDP, end-diastolic pressure ([1]; epinephrine stress): 6.4 ± 0.5 mmHg
LV EDV, end-diastolic volume ([1]; epinephrine stress): 39.9 ± 0.1 µL
LV ESP, end-systolic pressure ([1]; epinephrine stress): 64.2 ± 0.9 mmHg
LV ESV, end-systolic volume ([1]; epinephrine stress): 8.9 ± 0.8 µL
LV Pmax, systolic pressure ([1]; epinephrine stress): 85.6 ± 1.2 mmHg
SV, stroke volume ([1]; epinephrine stress): 31.0 ± 0.8 µL
SW, stroke work ([1]; epinephrine stress): 2569 ± 53 mmHg · μL
dP/dtmax, maximum rate of LV pressure rise ([1]; epinephrine stress): 17130 ± 239 mmHg/s
dP/dtmin, maximum rate of LV pressure fall ([1]; epinephrine stress): −3844 ± 278 mmHg/s
CO, cardiac output ([1]; vehicle): 3402 ± 92 µL/min
EDPVR, end-diastolic pressure volume relation ([1]; vehicle): 0.13 ± 0.01 mmHg/μL
EF, ejection fraction ([1]; vehicle): 62.5 ± 0.2%
ESPVR, end-systolic pressure volume relation ([1]; vehicle): 4.6 ± 0.04 mmHg/μL
HR, heart rate ([1]; vehicle): 136 ± 26 beat/min
LV EDP, end-diastolic pressure ([1]; vehicle): 5.0 ± 0.1 mmHg
LV EDV, end-diastolic volume ([1]; vehicle): 40.0 ± 0.1 µL
LV ESP, end-systolic pressure ([1]; vehicle): 52.2 ± 0.5 mmHg
LV ESV, end-systolic volume ([1]; vehicle): 15.0 ± 0.1 µL
LV Pmax, systolic pressure ([1]; vehicle): 69.7 ± 0.7 mmHg
SV, stroke volume ([1]; vehicle): 25.0 ± 0.1 µL
SW, stroke work ([1]; vehicle): 1616 ± 70 mmHg · μL
dP/dtmax, maximum rate of LV pressure rise ([1]; vehicle): 7524 ± 71 mmHg/s
dP/dtmin, maximum rate of LV pressure fall ([1]; vehicle): −1625 ± 27 mmHg/s
CO, cardiac output ([2]; diltiazem stress): 1857 ± 137 µL/min
EDPVR, end-diastolic pressure volume relation ([2]; diltiazem stress): 0.13 ± 0.01 mmHg/μL
EF, ejection fraction ([2]; diltiazem stress): 51.6 ± 1.7%
ESPVR, end-systolic pressure volume relation ([2]; diltiazem stress): 2.1 ± 0.1 mmHg/μL
HR, heart rate ([2]; diltiazem stress): 104 ± 20 beat/min
LV EDP, end-diastolic pressure ([2]; diltiazem stress): 5.1 ± 0.1 mmHg
LV EDV, end-diastolic volume ([2]; diltiazem stress): 40.0 ± 0.1 µL
LV ESP, end-systolic pressure ([2]; diltiazem stress): 30.2 ± 0.1 mmHg
LV ESV, end-systolic volume ([2]; diltiazem stress): 19.4 ± 0.7 µL
LV Pmax, systolic pressure ([2]; diltiazem stress): 40.2 ± 0.1 mmHg
SV, stroke volume ([2]; diltiazem stress): 20.6 ± 0.7 µL
SW, stroke work ([2]; diltiazem stress): 725 ± 20 mmHg · μL
dP/dtmax, maximum rate of LV pressure rise ([2]; diltiazem stress): 3619 ± 111 mmHg/s
dP/dtmin, maximum rate of LV pressure fall ([2]; diltiazem stress): −1372 ± 330 mmHg/s
CO, cardiac output ([2]; epinephrine stress): 7590 ± 176 µL/min
EDPVR, end-diastolic pressure volume relation ([2]; epinephrine stress): 0.13 ± 0.01 mmHg/μL
EF, ejection fraction ([2]; epinephrine stress): 78.2 ± 2.2%
ESPVR, end-systolic pressure volume relation ([2]; epinephrine stress): 10.0 ± 1.1 mmHg/μL
HR, heart rate ([2]; epinephrine stress): 241 ± 22 beat/min
LV EDP, end-diastolic pressure ([2]; epinephrine stress): 5.3 ± 0.2 mmHg
LV EDV, end-diastolic volume ([2]; epinephrine stress): 40.2 ± 0.1 µL
LV ESP, end-systolic pressure ([2]; epinephrine stress): 64.5 ± 0.2 mmHg
LV ESV, end-systolic volume ([2]; epinephrine stress): 8.7 ± 0.9 µL
LV Pmax, systolic pressure ([2]; epinephrine stress): 56.0 ± 0.3 mmHg
SV, stroke volume ([2]; epinephrine stress): 31.4 ± 0.8 µL
SW, stroke work ([2]; epinephrine stress): 2538 ± 16 mmHg · μL
dP/dtmax, maximum rate of LV pressure rise ([2]; epinephrine stress): 17206 ± 578 mmHg/s
dP/dtmin, maximum rate of LV pressure fall ([2]; epinephrine stress): -3180 ± 120 mmHg/s
CO, cardiac output ([2]; vehicle): 3780 ± 437 µL/min
EDPVR, end-diastolic pressure volume relation ([2]; vehicle): 0.13 ± 0.01 mmHg/μL
EF, ejection fraction ([2]; vehicle): 65.5 ± 3.5%
ESPVR, end-systolic pressure volume relation ([2]; vehicle): 5.4 ± 0.7 mmHg/μL
HR, heart rate ([2]; vehicle): 144 ± 32 beat/min
LV EDP, end-diastolic pressure ([2]; vehicle): 5.1 ± 0.1 mmHg
LV EDV, end-diastolic volume ([2]; vehicle): 40.1 ± 0.1 µL
LV ESP, end-systolic pressure ([2]; vehicle): 54.3 ± 1.0 mmHg
LV ESV, end-systolic volume ([2]; vehicle): 13.8 ± 1.4 µL
LV Pmax, systolic pressure ([2]; vehicle): 72.4 ± 1.3 mmHg
SV, stroke volume ([2]; vehicle): 26.3 ± 1.4 µL
SW, stroke work ([2]; vehicle): 1767 ± 56 mmHg · μL
dP/dtmax, maximum rate of LV pressure rise ([2]; vehicle): 7819 ± 140 mmHg/s
dP/dtmin, maximum rate of LV pressure fall ([2]; vehicle): −1658 ± 190 mmHg/s
acute blood pressure and heart rate ([3]; 60 minutes after infusion): immediate decrease in blood pressure, followed by reflex tachycardia
blood pressure (SBP, MAP) ([3]; Pkd2 mice, every 72 hours for 8 weeks): did not result in an overall decrease in systemic blood pressure
mortality ([3]; Pkd2 mice, repeated infusions for 8 weeks): 40%
duration of blood pressure decrease ([3]; after infusion): approximately one
cilia length ([3]; continuous infusion for 5 days): increased the cilia length
